From patent US5432172A, “Biological applications of alkaloids derived from the tunicate Eudistoma sp” (The Research Foundation of State University of New York, priority 1993, dated 1995)
Like-named read-outs stand apart in the source and are kept apart here.

Assays:
[1] = system: neuroblastoma N1E-115 cells; test: Growth and morphological differentiation of mouse neuroblastoma N1E-115 cells; conditions: for range of effective concentrations that inhibited cell proliferation and induced morphological differentiation / effects on cell appearance: N1E-115 cells; for range of effective concentrations that inhibited cell proliferation and induced morphological differentiation: below range no noticeable effect, above range cytotoxic; for effects on cell appearance: morphology; for most effective concentration for the cells tested: summary, cells tested in the present invention
Description: A,B: Untreated cells, 3 (A) and 8 (B) days after subculture. C,D: Cells grown for 3 (C) and 8 (D) days with 12.8 μM Debromoshermilamine. E,F: Cells grown for 7 days with Isosegoline A (39 μM) and Norsegoline (16.3 μM), respectively.
A,B: Untreated cells 3 (A) and 6 (B) days after subculture. C,D: Cells grown for 3 (C) and 6 (D) days with 50 μM forskolin. E,F: Cells grown for 3 (E) and 6 (F) days with 39 μM Segoline A. G,H: Cells grown for 3 (G) and 6 (H) days with 0.14 μM Eilatin.
Cells were grown for six days in the absence of drugs (A), or in the presence of: 10 μM 4-methylpyrido[2,3,4-kl]acridine (B), 4 μM pyrido[2,3,4-kl]acridine (C), 0.08 μM Eilatin (D), 75 μM forskolin (E).
The inventors chose the neuroblastoma N1E-115 cells because these tumor-derived cells can be induced to express characteristic neuronal properties by a variety of procedures see Spector, "Electrophysiology of clonal nerve cell lines. In: Excitable Cells in Tissue Culture", Nelson et al. eds., Plenum, New York 247-277 (1981) and can serve as a useful experimental system in which to explore the effects of the Eudistoma alkaloids on the biological properties of both cancer cells and neuronal cells.
The N1E-115 cells were exposed to various concentrations of the six (6) natural products shown in FIG. 1, and of the two synthetic pyridoacridines shown in Scheme III of FIG. 2. […] A,B: Untreated cells, 3 (A) and 8 (B) days after subculture. C,D: Cells grown for 3 (C) and (8) days with 12.8 μM Debromoshermilamine. E,F: Cells grown for 7 days with Isosegoline A (39 μM) and Norsegoline (16.3 μM), respectively. FIG. 5 illustrates the appearance of N1E-115 cells 6 days after replating in the absence (A) and in the presence of 10 μM 4-methylpyrido[2,3,4-kl]acridine (B), or 4 μM pyrido[2,3,4-kl]acridine.

[2] = system: normal hamster fibroblast NIL8 cell line; test: Growth and morphology of normal NIL8 fibroblast cells; format: cell-based; conditions: 12.8 μM Debromoshermilamine, 5 days, single application
Description: Cells were grown for 5 days in the absence of drugs (A), and in the presence of 25 μM forskolin (B), 1.4 μM Eilatin (C), or 12.8 μM Debromoshermilamine (D). […]
As illustrated, a single application of 1.4 μM Eilatin or 12.8 μM Debromoshermilamine to NIL8 cells produced effects which are strikingly similar to those obtained by chronically treating time cells with agents that elevate or mimic cAMP. […] This predilection towards cancer cells is a very desirable property in developing potential drugs for the treatment of cancer.

pyruvate kinase = test: Pyruvate kinase activity in cultured rat hepatoma FAO cells; format: cell-based; conditions: for Km: control 0.14, read-out: Km for the substrate phosphoenolpyruvate (PEP); for inhibition of pyruvate kinase activity: submaximal substrate concentrations; for rise in the Km for substrate (phosphoenolpyruvate): versus control
Description: FIG. 11 is a graph showing the effects of the Eudistoma alkaloids on pyruvate kinase activity in cultured rat hepatoma FAO cells. Enzyme activity v/Vmax was assayed as described in Example IV in partially purified extracts from cells incubated for 1 h in the absence ( ) or presence of 100 μM CPT-cAMP (.cndot.) and 26 μM segoline A ( ) as a function of substrate concentrations (phosphoenolpyruvate, PEP).
1. Activity of pyruvate kinase--a key glycolytic enzyme whose activity is inhibited by cAMP-dependent phosphorylation.
FIG. 11 is a graph showing the effects of the Eudistoma alkaloids on pyruvate kinase activity in cultured rat hepatoma FAO cells. Enzyme activity v/Vmax was assayed in partially purified extracts from cells incubated for 1 h in the absence (squares) or presence of 100 μM 8-(4-chlorophenylthio) cyclic AMP (CPT-cAMP)-CPT-cAMP (circles) and 26 μM Segoline A (triangles) as a function of substrate concentrations (phosphoenolpyruvate, PEP).

PEPCK mRNA = test: Levels of PEPCK mRNA in FTO-2B rat hepatoma cells (Northern blot); format: cell-based; conditions: segoline A 5, 26 and 52 μM; Debromoshermilamine 2.6, 12.8 and 38.4 μM; 4 hours
Description: FIG. 12 is a graph showing the effects of Eudistoma alkaloids on levels of PEPCK mRNA in FTO-2B rat hepatoma cells. The cells were exposed for 4 hours to serum-free medium which contained: 5 μM CPT-cAMP (lane 1), 5, 26 and 52 μM segoline A (lanes 2-4), 2.6, 12.8 and 38.4 μM Debromoshermilamine (lanes 5-7) or to serum-free medium alone (lane 8).
2. Induction of mRNA for P-enolpyruvate carboxykinase (PEPCK)--a key enzyme in the gluconeogenesis pathway in liver and kidney cells whose gene transcription rate is stimulated by cAMP see Hod et al., N.Y. Acad. Sci., 478, 31-45 (1986) and Hod et an., J. Biol. Chem., 263, 7747-7752 (1988).
FIG. 12 is a graph showing the effects of Eudistoma alkaloids on levels of PEPCK mRNA in FTO-2B rat hepatoma cells. The cells were exposed to medium which contained: 5 μM 8-CPT-cAMP, 5, 26 and 52 μM Segoline A, 2.6, 12.8 and 38.4 μM Debromoshermilamine or to control medium. The level of mRNA was determined by Northern blot analysis according to Hod et al., J. Biol. Chem., 259, 15603-15608 (1984) using the plasmid pPCK10rc as a hybridization probe, and quantified by densitometric scanning of the autoradiograms which is shown on the left.

[3] = system: rat anterior pituitary cells; test: Secretion of growth hormone (GH) from dispersed rat anterior pituitary cells; format: cell-based; conditions: 3 h; increasing concentrations
Text: FIG. 13 is a graph showing the effects of Debromoshermilamine on the secretion of growth hormone (GH) from dispersed rat anterior pituitary cells. Each bar represents the mean ±s.e.m of four wells.
3. Growth hormone release from anterior pituitary cells which is stimulated by a number of hormonal factors that activate the adenylyl cyclase system and elevate cellular cAMP levels, see, Bilezikjian et al., Endocrinology, 113, 1726-1731 (1983); Ray et al., Mol. Cell. Endocrinology, 45, 175-182 (1986) and Gabriel et al., Neuroendocrinology, 50 170-176 (1989).
FIG. 13 is a graph showing the effects of debromoshermilamine on the secretion of growth hormone (GH) from dispersed rat anterior pituitary cells. Cells grown in 24-well multiwell plates were incubated for 3 h in fresh medium (DME) in the absence (control) or presence of 1 mM DbcAMP, and increasing concentrations of Debromoshermilamine as indicated. Hormone secretion was measured using rat GH radioimmunoassay. Each bar represents the mean ±s.e.m of four wells.

Compound	range of effective concentrations that inhibited cell proliferation and induced morphological differentiation [1]	effects on cell appearance [1]	most effective concentration for the cells tested [1] [µM]	effect on cell shape of NIL8 cells [2]	effect on growth of NIL8 cells [2]	Km (pyruvate kinase; concentration of alkaloid not given) [µM]	inhibition of pyruvate kinase activity (pyruvate kinase)	rise in the Km for substrate (phosphoenolpyruvate) (pyruvate kinase)	induction of PEPCK mRNA (PEPCK mRNA)	growth hormone release [3]	effect on cell division and morphological differentiation ([1]; 39 μM Segoline A, 3 days, single application)	long-term effect on cell division ([1]; 39 μM Segoline A, 6 days, single application)	Km (pyruvate kinase; 26 μM segoline A, 1 h) [µM]
CC(=O)NCCc1c2c(c3nccc4c3c1Nc1ccccc1-4)NC(=O)CS2 [Debromoshermilamine]	6-32 μM	a large proportion of very flat cells of considerable size and relatively few neurites	6 to 32	flatter	growth was inhibited	460	inhibit pyruvate kinase activity	ca. 3 fold	stimulate the induction of PEPCK mRNA in a dose-dependent manner	stimulate growth hormone release, again, in a dose-dependent manner			
COc1cc2c3c4c(ccnc14)-c1ccccc1N3C1(C)C(=O)NC(=O)C2C1C (stereo not shown) [Segoline A]	12-52 μM	flattened cell bodies as well as numerous long neurites	12 to 52				inhibit pyruvate kinase activity	ca. 3 fold	stimulate the induction of PEPCK mRNA in a dose-dependent manner		inhibited cell division and induced morphological differentiation	cell division is completely blocked	440
